Measurements as given in patent US4024276A, “Xanthone-2-carboxylic acid compounds” (Roussel-UCLAF, priority 1974, dated 1977).

tested on: cutaneous anaphylaxis; assay: Passive cutaneous anaphylaxis in rats (method of Ovary), anti-allergic activity; format: in vivo, rat; conditions: Rattus norvegicus; male rats 180-220 g; intravenous, followed immediately by antigen/Evans blue challenge; anti-ovalbumin antiserum ID 3 days before; compounds used as tris(hydroxymethyl)methylamine salts; read-out: ED50 (dose of drug giving 50% inhibition)
Experimental: Evans blue dye was injected with the antigen to act as a marker to assess the severity of the local response which is inhibited by anti-allergic compounds. Groups of 7 male rats weighing 180 to 220 g were used in this test.
Preparation of antigen for sensitization (such as alum precipitated ovalbumin) was effected by washing 120 grams of Al(OH)3 gel in 140 mls of saline solution (use of a macerator facilitates mixing). Then, the product was centrifuged at 3,000 r.p.m. for about 10 minutes and the precipitate was responded with 300 mls of albumin egg powder (1.3 mg/ml) in saline solution and allowed to stand for 30 minutes. Then, the mixture was centrifuged at 3,000 r.p.m. for 10 minutes and the wet precipitate was weighed and to each gram weight 1 ml of saline solution was added. The antigen was stored in the refrigerator and was a quantity sufficient for 60 rats for a 3 day sensitization program.
Preparation of antiserum (such as anti-ovalbumin) was effected by injecting 1 ml of the alum precipitated ovalbumin subcutaneously into the rats on days 0, 2 and 4. The rats were bled on day 14 either by cardiac puncture or via the dorsal abdominal aorta and equal quantities of serum from each animal were pooled and thoroughly mixed. 2 ml aliquots were stored at -20° C in plastic tubes.
For sensitization, rats were anaesthetized with Nembutal (40-60 mg/kg i.p.) and were then sensitized by four ID injections (0.1 ml each) on their shaved backs. The animals were then left for a period of three days to develop sensitization.
For the challenge, the sensitized rats were anaesthetized and challenged intravenously via the superficial penile vein with the anti-allergic compound, followed immediately by 1 ml of an antigen/Evans blue mixture (1 mg albumin egg powder in 0.5 ml saline solution plus 0.5 ml of 1% Evans blue). The injections were speeded up by using an automatic 1 ml self filling glass syringe. The "challenged" rats were killed after 30 minutes and their skin on the dorsal surface was removed. The degree and area of blueing, proportional to the anaphylactic reaction, was assessed on a four point scoring system as follows:
1. Total scores for sites, 1, 2, 3 and 4 = X
2. Mean value of X for each group = X
3. X t = X for test group X c = X for control group [formula]

| Structure (SMILES) | ED50 |
| --- | --- |
| CC(=O)N=S(C)(=O)c1ccc2oc3ccc(C(=O)O)cc3c(=O)c2c1 (stereo not shown) [7-(N-acetyl-S-methylsulfonimidoyl)-xanthone-2-carboxylic acid] | 0.065 mg/kg |
| CS(=O)(=NC(=O)c1ccccc1)c1ccc2oc3ccc(C(=O)O)cc3c(=O)c2c1 (stereo not shown) [7-(N-benzoyl-S-methylsulfonimidoyl)-xanthone-2-carboxylic acid] | 0.68 mg/kg |
| CCCCCCc1cc(S(C)(=O)=NC(N)=O)cc2c(=O)c3cc(C(=O)O)ccc3oc12 (stereo not shown) [7-(N-carbamoyl-S-methylsulfonimidoyl)-5-(n-hexyl)-xanthone-2-carboxylic acid] | 0.008 mg/kg |
| CCCCCCc1cc(S(C)(=N)=O)cc2c(=O)c3cc(C(=O)O)ccc3oc12 (stereo not shown) [7-(S-methylsulfonimidoyl)-5-(n-hexyl)-xanthone-2-carboxylic acid] | 0.0028 mg/kg |
| CCCCCOc1cc(S(C)(=N)=O)cc2c(=O)c3cc(C(=O)O)ccc3oc12 (stereo not shown) [7-(S-methylsulfonimidoyl)-5-(n-pentyloxy)-xanthone-2-carboxylic acid] | 0.0035 mg/kg |
| Cc1ccc(S(=O)(=O)N=S(C)c2ccc3oc4ccc(C(=O)O)cc4c(=O)c3c2)cc1 (stereo not shown) [7-[N-(p-toluenesulfonyl)-S-methylsulfimidoyl]-xanthone-2-carboxylic acid] | 0.43 mg/kg |

same assay, conditions: male rats 180-220 g; intravenous, followed immediately by antigen/Evans blue challenge; anti-ovalbumin antiserum ID 3 days before; compounds used as tris(hydroxymethyl)methylamine salts

| Structure (SMILES) | ED50 (dose of drug giving 50% inhibition) |
| --- | --- |
| CS(=N)(=O)c1ccc2oc3ccc(C(=O)O)cc3c(=O)c2c1 (stereo not shown) [7-(S-methylsulfonimidoyl)-xanthone-2-carboxylic acid] | 0.033 mg/kg |
